# According to patent US12252457B2, “Compositions and methods for reducing tactile dysfunction, anxiety, and social impairment” (President and Fellows of Harvard College, priority 2018, dated 2025):
# Several values for one entry are separate records, joined by “and”; a condition that tells them apart may be missing. Identical values can stand only once. Counter-ions that a name gives are not always drawn.
# Target: T1, human GABA-A α1β3γ2 ion channels (Homo sapiens, UniProt P14867+P28472)
# T1 construct: expressed in transfected cells
# T1 sequence (P14867 28-456): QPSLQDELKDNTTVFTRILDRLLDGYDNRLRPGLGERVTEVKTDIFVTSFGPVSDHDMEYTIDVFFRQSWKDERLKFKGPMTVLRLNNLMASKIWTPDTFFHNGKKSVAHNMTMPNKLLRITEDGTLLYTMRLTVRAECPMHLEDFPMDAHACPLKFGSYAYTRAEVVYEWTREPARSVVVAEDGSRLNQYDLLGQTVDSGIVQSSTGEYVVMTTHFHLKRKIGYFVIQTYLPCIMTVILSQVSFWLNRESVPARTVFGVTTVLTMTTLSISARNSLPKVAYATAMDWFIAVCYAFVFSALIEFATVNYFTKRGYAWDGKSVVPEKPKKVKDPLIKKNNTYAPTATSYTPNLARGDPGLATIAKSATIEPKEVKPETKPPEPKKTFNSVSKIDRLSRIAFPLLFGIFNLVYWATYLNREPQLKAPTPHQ
# T1 sequence (P28472 26-473): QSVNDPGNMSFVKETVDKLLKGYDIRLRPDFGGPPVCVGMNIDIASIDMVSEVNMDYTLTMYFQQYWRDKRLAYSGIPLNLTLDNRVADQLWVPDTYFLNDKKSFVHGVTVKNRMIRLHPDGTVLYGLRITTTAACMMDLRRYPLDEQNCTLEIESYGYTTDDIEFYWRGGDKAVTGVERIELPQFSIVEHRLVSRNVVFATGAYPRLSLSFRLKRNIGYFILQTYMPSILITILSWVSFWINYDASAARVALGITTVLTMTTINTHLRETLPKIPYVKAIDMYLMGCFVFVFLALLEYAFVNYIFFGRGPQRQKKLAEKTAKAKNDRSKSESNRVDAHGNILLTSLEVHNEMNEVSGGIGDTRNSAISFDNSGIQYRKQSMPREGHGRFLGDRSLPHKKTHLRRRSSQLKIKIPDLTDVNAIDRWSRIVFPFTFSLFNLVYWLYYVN
# T1 sequence (P18507 40-467 partner limits assumed): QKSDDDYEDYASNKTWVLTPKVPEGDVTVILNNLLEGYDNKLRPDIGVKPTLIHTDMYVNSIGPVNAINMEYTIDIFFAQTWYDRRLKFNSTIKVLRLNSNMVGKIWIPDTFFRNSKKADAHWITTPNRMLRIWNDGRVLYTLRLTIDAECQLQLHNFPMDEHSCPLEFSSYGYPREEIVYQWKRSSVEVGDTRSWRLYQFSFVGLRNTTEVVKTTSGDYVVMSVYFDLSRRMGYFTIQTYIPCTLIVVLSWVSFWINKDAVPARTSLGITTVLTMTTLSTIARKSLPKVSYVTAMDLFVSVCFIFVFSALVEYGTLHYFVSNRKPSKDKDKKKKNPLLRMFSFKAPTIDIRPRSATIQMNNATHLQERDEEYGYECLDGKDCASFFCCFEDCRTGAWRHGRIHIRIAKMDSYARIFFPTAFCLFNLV
# Test: Human GABA-A receptor IonFlux HT agonist assay (Cl-flux), α1β3γ2
# Format: cell-based
# Conditions: for Normalized Peak hGABAA α1β3γ2 Current (%) Agonist, Mean: normalized to EC100 GABA (30 μM)
# Protocol: Six additions of 0.33% DMSO for 2 seconds were introduced to the cells to act as a time matched vehicle control for the agonist. Note: The test compound was applied over two ‘experimental patterns’ in increasing concentrations. […] Time-matched negative and reference compound data are included for comparison.
# The supplied compounds were prepared in DMSO to concentrations that were 300× the final assay concentrations of 0.1, 0.3, 1, 3, 10, 30 and 100 μM. Aliquots were taken out and diluted 300× into external buffer to give the final assay concentration. All wells included a final DMSO concentration of 0.33% including all control wells.
# All recordings were obtained from a holding potential of −60 mV. The compound addition sequence that was used for all additions was the same for all assays. […] Each test concentration of compound was applied for 2 seconds followed by 30 seconds wash. The process was repeated with the next ascending concentration of test compound up to a maximum of six concentrations per well (FIG. 14).
# Peak inward currents in response to the additions of compound were measured. […] All data were first exported to an Excel compatible data file and then analyzed using Graph Pad Prism software.
"EC50 (GABAA receptor chloride flux assay, read-out: EC50, activation of α1β3γ2-containing GABAA receptors)",SMILES,agonism of α1β3γ2-containing GABAA receptor (in words),"Normalized Peak hGABAA α1β3γ2 Current (%) Agonist, Mean (0.1 μM)","Normalized Peak hGABAA α1β3γ2 Current (%) Agonist, Mean (0.3 μM)","Normalized Peak hGABAA α1β3γ2 Current (%) Agonist, Mean (1 μM)","Normalized Peak hGABAA α1β3γ2 Current (%) Agonist, Mean (3 μM)","Normalized Peak hGABAA α1β3γ2 Current (%) Agonist, Mean (10 μM)","Normalized Peak hGABAA α1β3γ2 Current (%) Agonist, Mean (30 μM)","Normalized Peak hGABAA α1β3γ2 Current (%) Agonist, Mean (100 μM)"
–,"NC1C=C(C(=O)O)CCC1 (stereo not shown) [Compound 5, 3-aminocyclohex-1-enecarboxylic acid hydrochloride]",not an agonist,0.58%,0.56%,0.58%,0.62%,0.79%,0.57%,0.49%
23.3 µM and 19.7 µM,"O=C(O)C1=CCNCC1 [Isoguvacine, isoguvacine]",–,0.55%,1.02%,1.92%,4.94%,21.18%,53.29%,79.91%
